Experimental data from patent US20040038828A1 (priority 2002, published 2004).
Entries after “also recorded” stand apart in the source; their conditions may differ. Like-named read-outs stand apart in the source and are kept apart here.

Assays:
[1] = tested on: Fusarium oxysporum f. sp. lycopersici (isolate FP-7) spores; assay: Fusarium Tetrazolium Assay; type: cell-based; settings: 24 hours of exposure; MTT absorbance at 570 nm
Method: Fusarium Tetrazolium Assay: The evaluation of fungicidal activity was performed using a modified colorimetric assay (Mace, M. E., et al., Pesticide Biochemistry and Physiology, 38: 57-59 (1990)). Each candidate compound was tested using a suspension of Fusarium oxysporum f. sp. lycopersici (isolate FP-7) spores harvested from 10-day old petri plates using a 0.05% stock solution of Triton X-100 (referred to as FT stock). Harvested spores were suspended in Czapek-Dox Broth (CDB), prepared according to label instructions, at a ratio of 1:5 CDB:FT. The suspension was then standardized using a Beckman spectrophotometer (430 nm) which had been calibrated using a CDB blank. Compounds were then added to aliquots of the suspension to achieve active ingredient concentrations ranging from 0 ppm (untreated control) to 2000 ppm. Suspensions were incubated for 24 hr at 28° C. A 10% stock solution of MTT ((3-4,5-dimethylthiazole-2-yl)-2,5-diphenyl-2-2H-tetrazolium bromide) was then added to each aliquot; MTT is a vital stain that is commonly used to show if an organism is alive based on a color change). The suspensions were allowed to incubate for 4 hr, and then pelleted, drained, rinsed, and treated with 95% ethanol. The color change, which correlates with spore viability, was assessed using a Beckman spectrophotometer (570 nm) calibrated with 95% ethanol. Benlate® (benomyl) was used as an industry standard control. Each treatment was replicated six times and the assay for each compound was repeated. Regression analysis was performed using Sigma Plot 2000.

[2] = tested on: purple nutsedge (Cyperus rotundus) tubers; assay: Herbicide screen, nutsedge greenhouse assay (soil drench in pots); type: in vivo; settings: for level eliminating the germination of nutsedge: 100 ml soil drench, 500 g soil, tarped 7 days, shoots counted for 60 days
Method: (§1) Herbicide Screen: Each compound was tested on seeds of smooth pigweed (Amaranthus hybridus) and barnyard grass (Echinocloa crus-galli), and on tubers of purple nutsedge (Cyperus rotundus), by exposing seeds or tubers to a specific concentration of the test compound. Seeds were surface sterilized (by rinsing in 2% bleach solution for 90 seconds followed by two rinses with sterile water) and 20 seeds placed on sterile filter paper (Whatman #5) in a 10-cm petri plate for each of six replicates for each weed species tested. Twenty ml of compound of concentrations ranging from 0 ppm (sterile water control) to 2000 ppm was added to the petri dishes. Plates were stored at 30° C. in an dark incubator. Seed germination was monitored at 24 hr intervals for 30 days. Petri plate bioassays were repeated twice for each compound. Field collected purple nutsedge tubers were placed in 500 g of field soil with soil moisture adjusted to 5%. Five nutsedge tubers were planted in each 10 cm pot at a depth of 2.5 cm. Six replicate pots of each concentration, ranging from 0 ppm (water control) to 2000 ppm, were treated using 100 ml as a soil drench. Pots were tarped with co-extruded black-on-white polyethylene mulch for 7 days. After the tarps were removed, the number of emerged nutsedge shoots was recorded on a weekly basis for 60 days.

[3] = tested on: barnyard grass (Echinocloa crus-galli) seeds; assay: Herbicide screen, barnyard grass petri plate bioassay; type: in vivo; settings: all ppm levels tested (up to 2000 ppm), 30 days
Method: as §1

[4] = tested on: smooth pigweed (Amaranthus hybridus) seeds; assay: Herbicide screen, smooth pigweed petri plate bioassay; type: in vivo; settings: all ppm levels tested (up to 2000 ppm), 30 days
Method: as §1

[5] = tested on: root-knot nematode eggs (Meliodogyne incognita); assay: Nematicide screen, root-knot nematode galling assay on tomato; type: in vivo; settings: 0 to 2000 ppm soil drench, tarped 14 days, seedlings assessed 30 days after transplant
Method: Nematicide Screen: Efficacy as a nematicide was evaluated by infesting field soil with a standardized quantity of root-knot nematode eggs (Meliodogyne incognita). Soil was partitioned into 10 cm pots containing 500 g of soil each with soil moisture adjusted to 5%. Pots were treated with compounds ranging from 0 ppm to 2000 ppm of active ingredient in a 100-ml soil drench. Six replicate pots of each concentration were treated and tarped with co-extruded black-on-white polyethylene mulch for 14 days. After tarps were removed, a single tomato seedling was transplanted into each pot. Seedlings were removed 30 days later and assessed for root galling, root fresh weight, root dry weight, and number of eggs produced per gram of root tissue.

Verticillium dahliea = type: in vivo; settings: Watsonville; preplant fumigation, 400 pound per acre
Common chickweed = type: in vivo; settings: Watsonville plots; rate 400 lbs acres^−1
Corn spurry = type: in vivo; settings: Watsonville plots; rate 400 lbs acres^−1
Annual sowthistle = type: in vivo; settings: Watsonville plots; rate 400 lbs acres^−1
Redstem filaree = type: in vivo; settings: Watsonville plots; rate 400 lbs acres^−1
Southern brassbuttons = type: in vivo; settings: Watsonville plots; rate 400 lbs acres^−1
Little mallow = type: in vivo; settings: Watsonville plots; rate 400 lbs acres^−1
native weed population [6] = type: in vivo
Shepherd-spurse = type: in vivo; settings: Salinas plots; rate 400 lbs acres^−1
Henbet = type: in vivo; settings: Salinas plots; rate 400 lbs acres^−1
Commong roundsel = type: in vivo; settings: Salinas plots; rate 400 lbs acres^−1
native weed population [7] = type: in vivo; settings: Salinas plots, rate 400 lbs acres^−1

## OCCI [2-iodoethanol]
[1]
  concentration effective at reducing cell viability to levels achieved with Benlate (100 ppm): 100-500 ppm
  fungicidal activity (in words): comparable to the Benlate® control; also recorded: excellent fungicidal activity
[2]
  level eliminating the germination of nutsedge: ≥ 500 ppm
[3]
  germination of barnyard grass seeds: eliminated at all ppm levels tested
[4]
  germination of pigweed seeds: eliminated at all ppm levels tested
[5]
  root gall severity on tomato: galling decreases with increased concentration

## OCCBr [2-bromoethanol]
[1]
  fungicidal activity (in words): excellent fungicidal activity
[2]
  level eliminating the germination of nutsedge: ≥ 1000 ppm
[2]; at the 500 ppm level
  nutsedge germination: approximately 50%
[2]; equivalent of the 1000 ppm drench level
  soil applied equivalent of the rate eliminating nutsedge germination: 200 ppm
[3]
  germination of barnyard grass seeds: eliminated at all ppm levels tested
[4]
  germination of pigweed seeds: eliminated at all ppm levels tested
[5]
  root gall severity on tomato: Only the untreated control showed galling of any kind
Verticillium dahliea
  reduction of the population of Verticillium dahliea: 74%
Common chickweed
  weed biomass, Common chickweed: 1.6 gram/m^2
Corn spurry
  weed biomass, Corn spurry: 1.1 gram/m^2
Annual sowthistle
  weed biomass, Annual sowthistle: 0.0 gram/m^2
Redstem filaree
  weed biomass, Redstem filaree: 0.3 gram/m^2
Southern brassbuttons
  weed biomass, Southern brassbuttons: 1.0 gram/m^2
Little mallow
  weed biomass, Little mallow: 0.2 gram/m^2
Native weed population [6]; Watsonville
  control of native weeds (in words): control of most weeds
Native weed population [6]; Watsonville plots, rate 400 lbs acres^−1
  weed biomass, Other weeds: 3.6 gram/m^2
Native weed population [6]; Watsonville plots, rate 400 lbs acres^−1, same letter = not significantly different at P <0.05
  Total weed biomass: 13.7a gram/m^2
Shepherd-spurse
  weed biomass, Shepherd-spurse: 11.3 gram/m^2
Henbet
  weed biomass, Henbet: 9.4 gram/m^2
Commong roundsel
  weed biomass, Commong roundsel: 0.3 gram/m^2
Native weed population [7]
  weed biomass, Other weeds: 21.5 gram/m^2
Native weed population [7]; same letter = not significantly different at P < 0.05
  Total weed biomass: 46.7a gram/m^2
